Assays:
[1] = biological target: T1, N-his8-TEV-hPARG (389-976) (Homo sapiens, UniProt Q86W56); assay: PARG Biochemical Enzymatic Assay (PARG inhibition HTRF assay); conditions: 62.5 pM PARG, 5 nM Biotin-Parylated PARP1 substrate, 60 minutes preincubation, 10 minutes reaction at 23 °C
T1 construct: N-his8-TEV-hPARG (389-976); His8 (N); TEV protease cleavage site (N); made in house; host or cells: E. coli BL21(DE3)
Description: PARG Biochemical Enzymatic Assay
TEV-His8-PolyADP-Ribose Polymerase 1 (379-1014) (PARP1) and N-his8-TEV-hPARG (389-976) were used to transform BL21(DE3) competent cells followed by growth for 1 hour at 37 °C and plating on Kanamycin resistant agar plates. A single colony was then inoculated into 1 ml of Luria Broth and expansion into a 1 liter scale for growth at 37 °C for 3 hours. Expression was induced via 0.2 mM IPTG induction for 20 hours at 16 °C in BL21(DE3) E. coli. Purification was then performed using a Nickel column, size exclusion chromatography and HPLC analysis.
For substrate preparation, […] nicked DNA and 2 μM PARP1 protein were mixed for 10 minutes at 25 °C 10 μM biotin-NAD+ and 100 μM NAD+ were then added and incubated for 60 minutes at 30 °C to yield PARylated PARP1 substrate.
For compound screening, compounds were serially diluted to a 3× final concentration in assay buffer (Tris pH7.5 50 mM, KCl 50 mM, Tween-20 0.01%, BSA 0.1 mg/ml, EDTA 3 mM, EGTA 0.4 mM, DTT 1 mM) containing 1% DMSO. A top concentration of 1.5 μM for a 10-point dose response curve using a 1:3 dilution curve was used. 2.5×PARG (156.25 pM working concentration, 62.5 pM final concentration) was prepared in assay buffer and 4 ul added to a 384 well assay plate containing 2 μl of serially diluted compound. The plate was then centrifuged for 10 seconds and incubated for 60 minutes at 23 °C. 4 μl of 2.5× Biotin-Parylated PARP1 (12.5 nM working concentration, 5 nM final concentration) was then added to the plate and incubated for 10 minutes at 23 °C. 4 μl of […] Detection reagent containing 0.44 μg/ml of Streptavidin-Europium cryptate and 4 μg/ml of anti-6His-XL665 monoclonal antibody was added to the plate and incubated for 60 minutes at 23 °C. The Homogeneous Time Resolved Fluorescent (HTRF) signal was then measured on an Envision plate reader using and excitation wavelength of 337 nm and emission wavelengths of 615 nm and 665 nm. Normalized percent inhibition was then calculated using the following equation: % Inhibition normalized=(compound signal-min signal)/(max signal-min signal)*100%, where Maximum signal was substrate only wells and Minimum signal was enzyme and substrate well. IC50 was calculated by fitting % Inhibition values and log of compound concentrations to nonlinear regression (log(inhibitor) vs. response—Variable slope(four parameters)) with GraphPad 9.4.1
For biochemical activity, bracket is denoted as: A<100 nM; 100 nM<B<500 nM; C>500 nM

Kuramochi cells = assay: Cellular Viability Assay (5 day Kuramochi cell viability, CellTiter-Glo); type: cell-based; conditions: 5 days, 37 °C, growth inhibition relative to Day 0 (T0) and DMSO
Description: Kuramochi cells were seeded at a density of 1000 cells per well in a 384-well, white, sterile, clear bottom plate, using a Multidrop liquid dispenser and incubated for 24 hours at 37 °C in a 5% CO2 humidified environment. 24 hours later, compounds were added starting at a top dose of 10 μM for a 9-point dose response curve at a 1:3 dilution using an iDOT HT liquid handler and incubated for 5 days at 37 °C in a 5% CO2 humidified environment. After 5 days and at Day 0, plates were incubated at room temperature for 30 minutes followed by the addition of 30 μl of CellTiter-Glo Reagent. Plates were then mixed for 10 minutes on an orbital shaker followed by incubation at room temperature for 20 minutes. Luminescence was then read using the Envision plate reader. Percent Growth Inhibition was then calculated using the following equation: Percent Growth Inhibition normalized=100−(compound signal−T0)/(max signal−T0)*100%, where Max Signal refers to the DMSO only treated cells and T0 refers to the Day0 viability measurement. Growth Inhibition 50 was then calculated using the following equation: Y=Bottom+(Top−Bottom)/(1+10^((Log IC50−X)*hillslope)).
For cell activity, bracket is denoted as: A<1 uM; 1 uM<B<5 uM; C>5 uM.

T1 sequence (Q86W56 389-976): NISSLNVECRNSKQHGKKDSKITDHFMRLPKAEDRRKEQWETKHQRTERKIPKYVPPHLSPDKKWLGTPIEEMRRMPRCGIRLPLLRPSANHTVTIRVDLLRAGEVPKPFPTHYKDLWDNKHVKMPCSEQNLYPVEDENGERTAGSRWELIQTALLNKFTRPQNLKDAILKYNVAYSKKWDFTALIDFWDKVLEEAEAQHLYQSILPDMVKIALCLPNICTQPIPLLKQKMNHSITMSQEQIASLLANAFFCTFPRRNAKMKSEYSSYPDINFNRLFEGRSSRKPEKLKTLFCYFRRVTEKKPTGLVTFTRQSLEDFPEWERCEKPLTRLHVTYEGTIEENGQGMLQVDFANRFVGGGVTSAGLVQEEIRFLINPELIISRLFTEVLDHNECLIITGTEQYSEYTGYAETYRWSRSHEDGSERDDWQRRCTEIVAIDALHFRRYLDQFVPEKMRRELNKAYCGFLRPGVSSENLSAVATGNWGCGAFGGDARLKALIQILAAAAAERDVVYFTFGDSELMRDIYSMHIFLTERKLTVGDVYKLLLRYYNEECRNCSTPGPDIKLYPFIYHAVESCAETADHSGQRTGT

Row | Structure (SMILES) | IC50 [1] [µM] | IC50 (Kuramochi cells) [µM]
1 | CCCS(=O)(=O)N1CCN(c2cc(S(=O)(=O)NC3(C#N)CC3)cc3c(-c4nnc(C(F)F)s4)cnn23)CC1 [Example 18, N-(1-cyanocyclopropyl)-3-(5-(difluoromethyl)-1,3,4-thiadiazol-2-yl)-7-(4-(propylsulfonyl)piperazin-1-yl)pyrazolo[1,5-a]pyridine-5-sulfonamide] | < 0.1 | < 1
2 | CC1(C(=O)N2CCN(c3cc(S(=O)(=O)NC4(C#N)CC4)cc4c(-c5nnc(C(F)F)s5)cnn34)CC2)CCC1 [Example 19, N-(1-cyanocyclopropyl)-3-[5-(difluoromethyl)-1,3,4-thiadiazol-2-yl]-7-[4-(1-methylcyclobutanecarbonyl)piperazin-1-yl]pyrazolo[1,5-a]pyridine-5-sulfonamide] | < 0.1 | < 1
3 | Cc1nnc(N2CCN(c3cc(S(=O)(=O)NC4(C#N)CC4)cc4c(-c5nnc(C(F)F)s5)cnn34)CC2)s1 [Example 20, N-(1-cyanocyclopropyl)-3-[5-(difluoromethyl)-1,3,4-thiadiazol-2-yl]-7-[4-(5-methyl-1,3,4-thiadiazol-2-yl)piperazin-1-yl]pyrazolo[1,5-a]pyridine-5-sulfonamide] | < 0.1 | < 1
4 | CC1(NS(=O)(=O)c2cc(N3CCC4(CC3)COC4)n3ncc(-c4nc5ncccc5s4)c3c2)CC1 [Example 21, N-(1-methylcyclopropyl)-7-(2-oxa-7-azaspiro[3.5]nonan-7-yl)-3-(thiazolo[4,5-b]pyridin-2-yl)pyrazolo[1,5-a]pyridine-5-sulfonamide] | < 0.1 | < 1
5 | N#CC1(NS(=O)(=O)c2cc(N3CCN(C(=O)N4CC[C@H](F)C4)CC3)n3ncc(-c4nnc(C(F)F)s4)c3c2)CC1 [Example 22, (S)-N-(1-cyanocyclopropyl)-3-(5-(difluoromethyl)-1,3,4-thiadiazol-2-yl)-7-(4-(3-fluoropyrrolidine-1-carbonyl)piperazin-1-yl)pyrazolo[1,5-a]pyridine-5-sulfonamide] | < 0.1 | < 1
6 | N#CC1(c2nnc(-c3cnn4c(N5CCC6(CC5)COC6)cc(S(=O)(=O)NC5(C(F)F)CC5)cc34)s2)CC1 [Example 23, 3-[5-(1-cyanocyclopropyl)-1,3,4-thiadiazol-2-yl]-N-[1-(difluoromethyl)cyclopropyl]-7-(2-oxa-7-azaspiro[3.5]nonan-7-yl)pyrazolo[1,5-a]pyridine-5-sulfonamide] | < 0.1 | < 1

Further lines, with some results ahead:

Row | IC50 [1] [µM] | Structure (SMILES) | IC50 (Kuramochi cells) [µM]
7 | < 0.1 | CC1(NS(=O)(=O)c2cc(N3CCC4(CC3)COC4)n3ncc(-c4nnc(C(F)(F)F)s4)c3c2)CC1 [Example 14, N-(1-methylcyclopropyl)-7-(2-oxa-7-azaspiro[3.5]nonan-7-yl)-3-(5-(trifluoromethyl)-1,3,4-thiadiazol-2-yl)pyrazolo[1,5-a]pyridine-5-sulfonamide] | < 1
8 | < 0.1 | CC1(NS(=O)(=O)c2cc(N3CCC4(CC3)COC4)n3ncc(-c4nc(C(F)F)cs4)c3c2)CC1 [Example 15, 3-(4-(difluoromethyl)thiazol-2-yl)-N-(1-methylcyclopropyl)-7-(2-oxa-7-azaspiro[3.5]nonan-7-yl)pyrazolo[1,5-a]pyridine-5-sulfonamide] | < 1
9 | < 0.1 | Cn1ccnc1N1CCN(c2cc(S(=O)(=O)NC3(C#N)CC3)cc3c(-c4nnc(C(F)F)s4)cnn23)CC1 [Example 16, N-(1-cyanocyclopropyl)-3-(5-(difluoromethyl)-1,3,4-thiadiazol-2-yl)-7-(4-(1-methyl-1H-imidazol-2-yl)piperazin-1-yl)pyrazolo[1,5-a]pyridine-5-sulfonamide] | 1 to 5
10 | < 0.1 | CC(C)OC(=O)N1CCN(c2cc(S(=O)(=O)NC3(C#N)CC3)cc3c(-c4nnc(C(F)F)s4)cnn23)CC1 [Example 17, Isopropyl 4-(5-(N-(1-cyanocyclopropyl)sulfamoyl)-3-(5-(difluoromethyl)-1,3,4-thiadiazol-2-yl)pyrazolo[1,5-a]pyridin-7-yl)piperazine-1-carboxylate] | < 1

Reference: patent publication US20260356835A1, “BICYCLIC HETEROARYL COMPOUNDS” (QuantX Biosciences US, Inc., priority 2023, published 2026)
